{"source": "ChEMBL document CHEMBL1201862", "about": "“PubChem BioAssay data set” (2004)", "key": {"Kallikrein-7": {"biological_target": "Kallikrein-7 (Homo sapiens, UniProt P49862)", "sequence (P49862 whole entry)": "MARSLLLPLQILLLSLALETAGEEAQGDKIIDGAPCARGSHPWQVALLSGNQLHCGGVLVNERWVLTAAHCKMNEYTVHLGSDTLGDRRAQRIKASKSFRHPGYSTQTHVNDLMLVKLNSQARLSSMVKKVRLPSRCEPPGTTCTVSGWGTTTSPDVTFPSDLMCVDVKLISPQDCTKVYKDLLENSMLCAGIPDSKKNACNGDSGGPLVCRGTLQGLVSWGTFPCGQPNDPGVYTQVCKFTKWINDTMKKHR", "test": "Fluorescence Intensity-based biochemical primary high throughput dose response assay to identify activators of kallikrein-7 (K7) zymogen."}, "[1]": {"biological_target": "72 kDa type IV collagenase (Homo sapiens, UniProt P08253)", "sequence (P08253 whole entry)": "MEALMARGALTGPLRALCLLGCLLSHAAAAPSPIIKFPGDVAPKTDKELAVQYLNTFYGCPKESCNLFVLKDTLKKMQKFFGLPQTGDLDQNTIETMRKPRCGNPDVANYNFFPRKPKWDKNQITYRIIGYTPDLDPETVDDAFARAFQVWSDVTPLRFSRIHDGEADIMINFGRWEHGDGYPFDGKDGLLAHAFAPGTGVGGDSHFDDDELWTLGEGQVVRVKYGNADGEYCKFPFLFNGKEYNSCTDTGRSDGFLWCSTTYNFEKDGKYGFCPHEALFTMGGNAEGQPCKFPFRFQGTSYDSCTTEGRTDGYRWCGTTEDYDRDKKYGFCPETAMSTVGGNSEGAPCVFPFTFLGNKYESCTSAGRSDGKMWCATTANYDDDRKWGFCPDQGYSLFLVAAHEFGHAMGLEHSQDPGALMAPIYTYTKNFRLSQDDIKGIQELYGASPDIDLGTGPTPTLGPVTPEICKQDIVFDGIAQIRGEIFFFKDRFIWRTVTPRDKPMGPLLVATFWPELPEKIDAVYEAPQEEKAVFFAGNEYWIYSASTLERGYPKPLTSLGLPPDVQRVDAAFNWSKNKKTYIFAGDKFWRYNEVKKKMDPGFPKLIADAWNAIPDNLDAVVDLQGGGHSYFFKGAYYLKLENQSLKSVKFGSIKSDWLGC", "test": "Dose Response validation of uHTS RPN11 inhibitor hits using a MMP-2 Fluorescence assay.", "format": "functional"}, "[2]": {"biological_target": "26S proteasome non-ATPase regulatory subunit 14 (Homo sapiens, UniProt O00487)", "sequence (O00487 whole entry)": "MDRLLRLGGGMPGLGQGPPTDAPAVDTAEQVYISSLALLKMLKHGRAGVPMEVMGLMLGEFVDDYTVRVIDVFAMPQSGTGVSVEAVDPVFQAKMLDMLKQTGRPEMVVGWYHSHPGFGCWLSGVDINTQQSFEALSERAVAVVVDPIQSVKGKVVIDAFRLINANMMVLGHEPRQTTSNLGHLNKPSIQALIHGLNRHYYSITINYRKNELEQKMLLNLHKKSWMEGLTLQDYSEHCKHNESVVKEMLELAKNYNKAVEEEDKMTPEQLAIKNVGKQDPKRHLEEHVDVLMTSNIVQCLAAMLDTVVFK", "test": "inhibition of proteasome subunit RPN11 – biochemical, fluorescence polarization, uHTS hits, confirmation (AID 602368)", "format": "functional"}, "Prothrombin": {"biological_target": "Prothrombin (Bos taurus, UniProt P00735)", "test": "thrombin protease inhibitors – biochemical, fluorescence polarization, uHTS hits, dose response (AID 602369)", "format": "functional"}, "H9c2": {"tested_on": "H9c2", "test": "cells", "format": "functional, cell-based", "settings": "Rattus norvegicus, H9c2, Myocardium"}, "[3]": {"test": "Vero E6 cell cytotoxicity, dose response, cytotoxicity control for non-replicating M. tuberculosis project, secondary assay (AID 492998)", "format": "functional, VeroE6", "settings": "Vero C1008"}, "cells": {"test": "cells", "format": "functional"}, "[4]": {"test": "A Cell Based Secondary Assay To Explore Cytotoxicity of Compounds that Sensitize Mycobacterium Tuberculosis to Beta-Lactam Antibiotics.", "format": "functional"}, "[5]": {"test": "A cytotoxicity screen of small molecule inhibitors of the PhoP region in Salmonella typhi identified in the primary screen. [Related pubchem assays: 1850, 1864, 1985 ]", "format": "functional"}, "[6]": {"test": "HEK-293T viability loss after treatment – luminescence, T-cell screen hits, cytotoxicity control for TCR NF-kB inhibitor project, dose response (AID 489026);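 also: cells exposed to compound about 14 hours before the viability readout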", "format": "functional, cell-based"}, "[7]": {"test": "viability of HCT116 lacking mutant beta-catenin – cell-based, human colon tumor, dose response (AID 1045);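 also: HCT116 colon tumor cells with beta catenin knocked out; cells exposed to compound for 60 hours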", "format": "functional"}, "[8]": {"test": "viability of PTEN-deleted HCT116 cells – cell-based, HCT116 PTEN knockout, dose response (AID 1047);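 also: HCT116 colon tumor cells with PTEN knocked out; cells exposed to compound for 60 hours before readout; potency for loss of cell viability measured by luminescence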", "format": "functional"}, "[9]": {"biological_target": "T1, COUP transcription factor 2 (Homo sapiens, UniProt P24468)", "T1 sequence (P24468 whole entry)": "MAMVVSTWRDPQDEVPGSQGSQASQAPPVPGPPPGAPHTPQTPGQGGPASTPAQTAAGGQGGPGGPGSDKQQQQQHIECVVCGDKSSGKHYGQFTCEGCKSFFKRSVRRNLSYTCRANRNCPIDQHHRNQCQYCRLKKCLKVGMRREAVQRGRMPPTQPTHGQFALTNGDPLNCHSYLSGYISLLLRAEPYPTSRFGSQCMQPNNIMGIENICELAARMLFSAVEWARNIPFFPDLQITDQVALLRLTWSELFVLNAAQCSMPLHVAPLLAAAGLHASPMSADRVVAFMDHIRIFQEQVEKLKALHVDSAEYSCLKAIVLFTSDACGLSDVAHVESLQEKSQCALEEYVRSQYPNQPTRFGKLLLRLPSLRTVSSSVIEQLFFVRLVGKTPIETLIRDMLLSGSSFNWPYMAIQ", "test": "Luminescence-based cell-based high throughput dose response assay to identify inhibitors of COUP-TFII (NR2F2).", "format": "functional"}, "[10]": {"test": "luciferase reporter signal suppression in cells – H4 neuroglioma cells, luminescence, dose response (AID 1990)", "format": "functional, cell-based"}, "[11]": {"test": "Luminescence Cell-Based Dose Response HTS to Identify Inhibitors of 5'UTR Stem-Loop Driven Prion Protein mRNA Translation in H4 Neuroglioblastoma Cells. [Related pubchem assays: 1827 (Project Summary), 1813 (Primary HTS)]", "format": "functional"}, "[12]": {"test": "alpha-synuclein stem-loop luciferase translation blockers – H4 neuroglioma cells, luminescence, confirmation (AID 1988)", "format": "functional, cell-based"}}, "note": "The source made the active and inactive calls.", "data": [{"compound": "Cc1cc2nc(-c3ccc(SCc4ccccn4)nc3)[nH]c2cc1C", "values": [{"measurement": "EC50", "setting": "Kallikrein-7", "value": "12.9 µM (inactive)"}]}, {"compound": "COc1ccc(OC)c(N2C(=O)/C(=C/Nc3c(C)n(C)n(-c4ccccc4)c3=O)C(=O)NC2=S)c1", "values": [{"measurement": "IC50", "setting": "[1]", "value": "38.7 µM (active)"}, {"measurement": "IC50", "setting": "[2]", "value": "34.7 µM (active)"}, {"measurement": "IC50", "setting": "Prothrombin", "value": "51.9 µM (active)"}]}, {"compound": "O=C(Nc1ccccc1)c1nc[nH]c1C(=O)NCCCCCCNC(=O)c1[nH]cnc1C(=O)Nc1ccccc1", "values": [{"measurement": "IC50", "setting": "H9c2", "value": "> 79 µM (inactive)"}]}, {"compound": "CCN1CCN(c2nc(O)c3c(n2)CCC3)CC1", "values": [{"measurement": "IC50", "setting": "H9c2", "value": "> 79 µM (inactive)"}]}, {"compound": "CCCn1nnnc1NC(=O)c1cc(Cl)ccc1Cl", "values": [{"measurement": "CC50", "setting": "[3]", "value": "> 20 µM (active)"}, {"measurement": "IC50", "setting": "cells", "value": "5.95 µM (active)"}]}, {"compound": "COc1ccc(Cl)cc1NC(=O)CN(C)C(=O)c1ccc(N2CCCCCC2)c([N+](=O)[O-])c1", "values": [{"measurement": "CC50", "setting": "[4]", "value": "> 40 µM (active)"}]}, {"compound": "O=C(COC(=O)Cn1[nH]c(=O)c2ccccc2c1=O)NNC(=O)c1ccc(Br)cc1", "values": [{"measurement": "IC50", "setting": "H9c2", "value": "17.2 µM (active)"}]}, {"compound": "CCCC(=O)Nc1ccc2nn(-c3ccc(OC)cc3)nc2c1", "values": [{"measurement": "EC50", "setting": "Kallikrein-7", "value": "> 69.5 µM (inactive)"}]}, {"compound": "COc1ccccc1C(=O)N1CC2(C)CC1CC(C)(C)C2", "note": "(stereo unspecified)", "values": [{"measurement": "EC50", "setting": "[5]", "value": "> 50 µM (active)"}]}, {"compound": "CCCCc1cc(=O)oc2cc(C)cc(OCC(=O)N3CCC(C(=O)O)CC3)c12", "values": [{"measurement": "EC50", "setting": "Kallikrein-7", "value": "> 7.72 µM (active)"}]}, {"compound": "Cn1nc(CC(=O)Nc2ccc(N3CCN(C(=O)OC(C)(C)C)CC3)cc2)c2ccccc2c1=O", "values": [{"measurement": "IC50", "setting": "[6]", "value": "> 80 µM (inactive)"}, {"measurement": "EC50", "setting": "[7]", "value": "5.89 µM (active)"}, {"measurement": "EC50", "setting": "[8]", "value": "8.04 µM (active)"}, {"measurement": "IC50", "setting": "[9]", "value": "4.32 µM (active)"}]}, {"compound": "CCOC(=O)/C=c1\\s/c(=C\\c2c(OC)ccc3ccccc23)c(=O)n1CC(=O)NCC1CCCO1", "note": "(stereo unspecified)", "values": [{"measurement": "EC50", "setting": "[10]", "value": "10.5 µM (active)"}, {"measurement": "CC50", "setting": "[4]", "value": "12.6 µM (active)"}, {"measurement": "EC50", "setting": "[11]", "value": "12.3 µM (active)"}, {"measurement": "EC50", "setting": "[12]", "value": "8.43 µM (active)"}]}]}
